# Target: Recombinant human HSD17B13 (Homo sapiens (Human), UniProt Q7Z5P4)
# Experiment: HSD17B13 rapid-fire mass spectrometry assay (RF/MS assay)
# Format: biochemical
# Conditions: inhibition of HSD17B13; LTB4 10 μM, NAD+ 0.5 mM, RT 3 h; IC50 ranges A-E
# Procedure, shortened: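 Sf9-expressed human HSD17B13 (80 nM) with 10 μM LTB4 and 0.5 mM NAD+, incubated with compound (0–100 μM) for 3 h at RT in Tris pH 7.5/BSA/Tween-20. After formic acid quench, LTB4 conversion to 12-oxo-LTB4 measured by RapidFire MS/MS. IC50 from normalised residual activity, duplicates.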
# Recombinant human HSD17B13, sequence (Q7Z5P4 20-300): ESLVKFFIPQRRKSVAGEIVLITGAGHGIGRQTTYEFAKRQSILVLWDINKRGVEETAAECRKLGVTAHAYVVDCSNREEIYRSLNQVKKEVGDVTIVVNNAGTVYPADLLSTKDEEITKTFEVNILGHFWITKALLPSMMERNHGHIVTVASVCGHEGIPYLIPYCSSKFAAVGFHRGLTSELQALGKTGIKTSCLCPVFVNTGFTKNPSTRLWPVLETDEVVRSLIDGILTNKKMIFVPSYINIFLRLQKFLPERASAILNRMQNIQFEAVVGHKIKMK
row,IC50 [nM],Structure (SMILES)
1,500 to 1000,COc1cc(C(=O)O)c(F)cc1NS(=O)(=O)c1csc(-c2ccc(C3=CCC(C)(C)CC3)c(C(N)=O)c2)n1 [Example 530]
2,1000 to 100000,O=C(O)c1cc(NS(=O)(=O)c2cnc(-c3ccc(F)cc3)s2)n(-c2ccccc2)n1 [Example 92]
3,1000 to 100000,COc1cc(C(=O)O)ccc1NS(=O)(=O)c1csc(C#Cc2ccc(C(N)=O)cc2)n1 [Example 224]
4,> 100000,O=S(=O)(Nc1ccccc1)c1cnc(-c2ccc(F)cc2)s1 [Example 24]
5,500 to 1000,COc1cc(C(=O)O)ccc1NS(=O)(=O)c1csc(-c2ccc(-c3ccccc3)cc2F)n1 [Example 304]
6,< 100,COc1cc(C(=O)O)c(F)cc1NS(=O)(=O)c1csc(-c2ccc(-c3ccc4[nH]ccc4c3)cc2)n1 [Example 638]
7,1000 to 100000,COc1cc(C(=O)O)c(F)cc1NS(=O)(=O)c1csc(-c2ccc(C(F)(F)F)nc2C2=CCC(C)(C)CC2)n1 [Example 561]
8,< 100,COc1cc(C(=O)O)c(F)cc1NS(=O)(=O)c1csc(-c2ccc(C3CCC(C)(C)CC3)cc2OC)n1 [Example 539]
9,500 to 1000,COc1cc(C(=O)O)ccc1NS(=O)(=O)c1cc(-c2ccc(C3CCCCC3)cc2)ccc1F [Example 435]
10,100 to 500,COc1cc(C(=O)O)c(F)cc1NS(=O)(=O)c1csc(-c2ccc(-c3cn[nH]c3)cc2)n1 [Example 644]
11,< 100,COc1cc(C(=O)O)c(F)cc1NS(=O)(=O)c1csc(-c2ccc(C3=CCC(C(F)(F)F)CC3)c(OC)c2F)n1 (stereo not shown) [Example 600]
12,1000 to 100000,"O=C(O)c1cc2c(cc1F)CCN(S(=O)(=O)c1ccc(F)cc1)C2 [Example 6, 6-fluoro-2-((4-fluorophenyl)sulfonyl)-1,2,3,4-tetrahydroisoquinoline-7-carboxylic acid]"
13,1000 to 100000,O=C(O)c1cnc(NS(=O)(=O)c2cnc(-c3ccc(F)cc3)s2)nc1 [Example 83]
14,100 to 500,COc1cc(C(=O)O)c(F)cc1NS(=O)(=O)c1ccc2sc(-c3ccc(-c4ccccc4)cc3)nc2c1 [Example 668]
15,100 to 500,COc1cc(C(=O)O)ccc1NS(=O)(=O)c1cccc(-c2ccc(C3CCC(C)(C)CC3)cc2)c1F [Example 473]
16,500 to 1000,COc1cc(C(=O)O)c(F)cc1NS(=O)(=O)c1ccc2nc(-c3ccc([C@H]4CC[C@H](C(F)(F)F)CC4)cc3)sc2c1 [Example 659]
17,100 to 500,COc1cc(C(=O)O)c(F)cc1NS(=O)(=O)c1csc(C#Cc2cccc(Cl)c2)n1 [Example 234]
18,1000 to 100000,O=C(O)C1CCN(S(=O)(=O)c2cnc(-c3ccc(F)cc3)s2)CC1 [Example 64]
19,100 to 500,O=C(O)c1ccc(NS(=O)(=O)c2ccc(Oc3ccc(S(=O)(=O)Nc4ccc(C(=O)O)cc4O)cc3)cc2)c(O)c1 [Example 172]
20,1000 to 100000,COc1cc(C(=O)O)ccc1NS(=O)(=O)c1csc(NCCc2ccccc2)n1 [Example 165]
21,1000 to 100000,COc1cc(C(=O)O)ccc1NS(=O)(=O)c1csc(N2CCN(C3CCCC3)CC2)n1 [Example 265]
22,1000 to 100000,COc1cc(C(=O)O)ccc1NS(=O)(=O)c1csc(N2CCC(c3ccccc3)CC2)n1 [Example 256]
23,100 to 500,CCC[C@H]1CC[C@H]([C@H]2CC[C@@H](c3nc(S(=O)(=O)Nc4cc(F)c(C(=O)O)cc4OC)cs3)CC2)CC1 [Example 733]

row,IC50 [nM],Structure (SMILES)
1,100 to 500,O=C(O)c1ccc(NS(=O)(=O)c2cnc(-c3ccc(F)cc3)s2)c(F)c1 [Example 28]
2,1000 to 100000,COc1cc(C(=O)O)ccc1NS(=O)(=O)N1CCC(c2nnn[nH]2)CC1 [Example 313]
3,< 100,COc1cc(C(=O)O)c(F)cc1NS(=O)(=O)c1csc(-c2ccc(C3CCC4(CC3)CC4)cc2)n1 [Example 778]
4,1000 to 100000,O=C(O)c1ccc2nc(NS(=O)(=O)c3cnc(-c4ccc(F)cc4)s3)oc2c1 [Example 93]
5,500 to 1000,COc1cc(C(=O)O)ccc1NS(=O)(=O)c1csc(N2CCCC(Nc3ccccc3)C2)n1 (stereo not shown) [Example 261]
6,< 100,CCOc1c(C2=CCC(C(F)(F)F)CC2)ccc(-c2nc(S(=O)(=O)Nc3cc(F)c(C(=O)O)cc3OC)cs2)c1F (stereo not shown) [Example 816]
7,< 100,COc1cc(C(=O)O)ccc1NS(=O)(=O)c1csc(C#Cc2ccc(N(C)C)cc2)n1 [Example 210]
8,< 100,COc1cc(C(=O)O)c(F)cc1NS(=O)(=O)c1csc(-c2ccc(C3CCC(C)(C)CC3)c3[nH]ncc23)n1 [Example 541]
9,1000 to 100000,O=C(O)c1cc(NS(=O)(=O)c2cnc(-c3ccc(F)cc3)s2)cs1 [Example 75]
10,100 to 500,COc1cc(C(=O)O)c(F)cc1NS(=O)(=O)c1ccc2sc(-c3ccc(C4CCCCC4)cc3)nc2c1 [Example 629]
11,100 to 500,COc1cc(C(=O)O)ccc1NS(=O)(=O)c1csc(-c2ccc(C3CCCC(C)(C)C3)cc2)n1 (stereo not shown) [Example 368]
12,100 to 500,COc1cc(C(=O)O)c(F)cc1NS(=O)(=O)c1csc(-c2ccc(C3CCC(C)(C)CC3)c(OC(F)(F)F)c2)n1 [Example 540]
13,100 to 500,COc1cc(C(=O)O)ccc1NS(=O)(=O)c1csc(C#Cc2ccncc2)n1 [Example 216]
14,1000 to 100000,O=S(=O)(Nc1ccc(O)cc1O)c1cnc(-c2ccc(F)cc2)s1 [Example 109]
15,100 to 500,O=C(O)c1ccc(NS(=O)(=O)c2csc(-c3ccc(O)cc3)n2)c(O)c1 [Example 112]
16,< 100,COc1cc(C(=O)O)c(F)cc1NS(=O)(=O)c1csc(-c2ccc(C3CCC(C)(C)CC3)c(F)c2C)n1 [Example 566]
17,1000 to 100000,COc1cc(C(=O)O)ccc1NS(=O)(=O)c1csc(N2CCC(c3nnn[nH]3)CC2)n1 [Example 263]
18,100 to 500,COc1cc(C(=O)O)c(F)cc1NS(=O)(=O)c1csc(-c2ccc(C3CCC(C)(C)CC3)nc2)n1 [Example 553]
19,1000 to 100000,COc1cc(-c2nnn[nH]2)ccc1NS(=O)(=O)c1cnc(-c2ccc(F)cc2)s1 [Example 135]
20,1000 to 100000,COc1cc(C(=O)O)ccc1NS(=O)(=O)c1coc2ccccc12 [Example 138]
21,500 to 1000,"COc1cc(C(=O)O)ccc1NS(=O)(=O)c1cncc(C#Cc2cccc(OC(F)(F)F)c2)c1 [Example 434, 3-methoxy-4-((5-((3-(trifluoromethoxy)phenyl)ethynyl)pyridine)-3-sulfonamido)benzoic acid]"
22,100 to 500,COc1cc(C(=O)O)ccc1NS(=O)(=O)c1cnc(-c2ccccc2)s1 [Example 158]
23,< 100,COc1cc(C(=O)O)c(F)cc1NS(=O)(=O)c1csc(C#Cc2ccc(C(F)(F)F)cc2)n1 [Example 227]

row,IC50 [nM],Structure (SMILES)
1,< 100,COc1cc(C(=O)O)ccc1NS(=O)(=O)c1csc(C#Cc2cccc(F)c2)n1 [Example 203]
2,100 to 500,COc1cc(C(=O)O)c(F)cc1NS(=O)(=O)c1csc(-c2ccc(C3=CCC(C)(C)CC3)nc2)n1 [Example 551]
3,1000 to 100000,COc1cc(C(=O)O)ccc1NS(=O)(=O)c1csc(N2CCN(c3ccc(C)cc3)CC2)n1 [Example 278]
4,100 to 500,COc1cc(C(=O)O)c(F)cc1NS(=O)(=O)c1csc(-c2ccc(OC3CCCCC3)cc2)n1 [Example 763]
5,< 100,COc1cc(C(=O)O)c(F)cc1NS(=O)(=O)c1csc(-c2ccc(-c3cc(F)c(C(F)(F)F)c(F)c3)c(OC(C)C)c2F)n1 [Example 790]
6,100 to 500,COc1cc(C(=O)O)c(F)cc1NS(=O)(=O)c1csc(-c2ccc(CCC(C)C)cc2)n1 [Example 625]
7,100 to 500,COc1cc(C(=O)O)ccc1NS(=O)(=O)c1csc(-c2c(C)ccc3ccccc23)n1 [Example 152]
8,100 to 500,COc1cc(C(=O)O)c(F)cc1NS(=O)(=O)c1ncc(-c2ccc([C@H]3CC[C@H](C(F)(F)F)CC3)cc2)s1 [Example 621]
9,1000 to 100000,O=S(=O)(Nc1ccc(-c2nnn[nH]2)cc1)c1cnc(-c2ccc(F)cc2)s1 [Example 34]
10,100 to 500,"COc1cc(C(=O)O)ccc1NS(=O)(=O)c1cccc(-c2ccc([C@H]3CC[C@@H](C(F)(F)F)CC3)cc2)c1F [Example 474, 4-((2-fluoro-4′-((1s,4s)-4-(trifluoromethyl)cyclohexyl)-[1,1′-biphenyl])-3-sulfonamido)-3-methoxybenzoic acid]"
11,< 100,CC[C@H]1CC[C@H](c2ccc(-c3nc(S(=O)(=O)Nc4cc(F)c(C(=O)O)cc4OC)co3)cc2)CC1 [Example 495]
12,100 to 500,CC[C@H]1CC[C@H](c2ccc(-c3nc4cc(S(=O)(=O)Nc5cc(F)c(C(=O)O)cc5OC)ccc4s3)cc2)CC1 [Example 632]
13,1000 to 100000,"COc1cc(C(=O)O)ccc1NS(=O)(=O)Nc1ccc2nc(-c3ccc(F)cc3)sc2c1 [Example 328, 4-((N-(2-(4-fluorophenyl)benzo[d]thiazol-6-yl)sulfamoyl)amino)-3-methoxybenzoic acid]"
14,100 to 500,COc1cc(C(=O)O)ccc1NS(=O)(=O)c1ccc(-c2cnc(-c3ccccc3)s2)c(F)c1 [Example 337]
15,100 to 500,CCCOc1c(C2CCC(C)(C)CC2)ccc(-c2nc(S(=O)(=O)Nc3cc(F)c(C(=O)O)cc3OC)cs2)c1F [Example 579]
16,100 to 500,COc1cc(C(=O)O)c(F)cc1NS(=O)(=O)c1csc(C#Cc2ccccc2C)n1 [Example 237]
17,1000 to 100000,"CC(C)(C)c1ccc(S(=O)(=O)NC(=O)c2ccc(NS(=O)(=O)c3cnc(-c4ccc(F)cc4)s3)cc2)cc1 [Example 31, N-((4-(tert-butyl)phenyl)sulfonyl)-4-((2-(4-fluorophenyl)thiazole)-5-sulfonamido)benzamide]"
18,> 100000,O=C(O)c1ccc2c(c1)CCN2S(=O)(=O)c1ccc(F)cc1 [Example 12]
19,1000 to 100000,COc1cc(C(=O)O)c(-c2ccccc2)cc1NS(=O)(=O)c1csc(-c2ccc(C3CCC(C)(C)CC3)cc2C(F)(F)F)n1 [Example 681]
20,100 to 500,COc1cc(C(=O)O)c(F)cc1NS(=O)(=O)c1csc(-c2ccc(C3=CCC(C)(C)CC3)c(CO)c2)n1 [Example 529]
21,1000 to 100000,COc1cc(C(=O)O)cc2c1N(S(=O)(=O)c1cnc(-c3ccc(F)cc3)s1)CCC2 [Example 132]
